In BindingDB's records for doi:10.1021/jm0491492 (Uppsala University, 2005):
pKi: −log10 of the molar value.

Target: Type-2 angiotensin II receptor (Sus scrofa)
Assay: Displacement of [125I]-Ang II from angiotensin II receptor type 2 in pig uterus myometrium

Row | Structure (SMILES) | pKi
1 | CC(C)[C@H](NC(=O)[C@H](C)NC(=O)[C@@H](N)CC(=O)O)C(=O)Nc1cccc2c1N[C@@H](Cc1ccc(O)cc1)C(=O)N(CC(=O)N[C@@H](Cc1cnc[nH]1)C(=O)N1CCC[C@H]1C(=O)N[C@@H](Cc1ccccc1)C(=O)O)C2 [(3S)-3-amino-3-{[(1S)-1-{[(1S)-1-{[(2S)-4-({[(2S)-1-[(2S)-2-{[(1S)-1-carboxy-2-phenylethyl]carbamoyl}pyrrolidin-1-yl]-3-(1H-imidazol-4-yl)-1-oxopropan-2-yl]carbamoyl}methyl)-2-[(4-hydroxyphenyl)methyl]-3-oxo-2,3,4,5-tetrahydro-1H-1,4-benzodiazepin-9-yl]carbamoyl}-2-methylpropyl]carbamoyl}ethyl]carbamoyl}propanoic acid] | 8.03
2 | N=C(N)NCCC[C@H](NC(=O)[C@@H](N)CC(=O)O)C(=O)Nc1cccc2c1N[C@@H](Cc1ccc(O)cc1)C(=O)N(CC(=O)N[C@@H](Cc1cnc[nH]1)C(=O)N1CCC[C@H]1C(=O)N[C@@H](Cc1ccccc1)C(=O)O)C2 [(3S)-3-amino-3-{[(1S)-1-{[(2S)-4-({[(2S)-1-[(2S)-2-{[(1S)-1-carboxy-2-phenylethyl]carbamoyl}pyrrolidin-1-yl]-3-(1H-imidazol-4-yl)-1-oxopropan-2-yl]carbamoyl}methyl)-2-[(4-hydroxyphenyl)methyl]-3-oxo-2,3,4,5-tetrahydro-1H-1,4-benzodiazepin-9-yl]carbamoyl}-4-[(diaminomethylidene)amino]butyl]carbamoyl}propanoic acid] | 8.55
3 | CC(C)[C@H](NC(=O)[C@H](CCCNC(=N)N)NC(=O)[C@@H](N)CC(=O)O)C(=O)Nc1cccc2c1N[C@@H](Cc1ccc(O)cc1)C(=O)N(CC(=O)N[C@@H](Cc1cnc[nH]1)C(=O)N1CCC[C@H]1C(=O)N[C@@H](Cc1ccccc1)C(=O)O)C2 [(3S)-3-amino-3-{[(1S)-1-{[(1S)-1-{[(2S)-4-({[(2S)-1-[(2S)-2-{[(1S)-1-carboxy-2-phenylethyl]carbamoyl}pyrrolidin-1-yl]-3-(1H-imidazol-4-yl)-1-oxopropan-2-yl]carbamoyl}methyl)-2-[(4-hydroxyphenyl)methyl]-3-oxo-2,3,4,5-tetrahydro-1H-1,4-benzodiazepin-9-yl]carbamoyl}-2-methylpropyl]carbamoyl}-4-[(diaminomethylidene)amino]butyl]carbamoyl}propanoic acid] | 9.10
